The subject of experiment [1] is Candida and Aspergillus strains. The experiment is described as follows: Antifungal MIC, summary over whole panel of fungal strains. Format: cell-based. Particulars: for antifungal activity after oxidizing the sulfur atom to sulfoxide: oxidized analogues. As for the experimental part:
Fungal MIC determination experiments were performed using untreated 96-well plates (Corning). Cells were counted either by using a hemocytometer (Hausser Scientific, Horsham, Pa., USA) or by measuring optical density at attenuance of 600 nm (OD600) by using a Genesys 20 spectrophotometer (Thermo Scientific, Waltham, Mass., USA). Spectrophotometric and colorimetric measurements in 96-well plates were performed using a SpectraMax M5 spectrometer (Molecular Devices, Sunnyvale, Calif., USA).
Yeast strains Candida albicans ATCC 10231 (strain A), C. albicans ATCC 64124 (strain B), and C. albicans ATCC MYA-2876(S) (strain C) were kindly provided by Dr. Jon Y. Takemoto (Utah State University, Logan, UT, USA). C. albicans ATCC MYA-90819(R) (strain D), C. albicans ATCC MYA-2310(S) (strain E), C. albicans ATCC 1237(R) (strain F), C. albicans ATCC MYA-1003(R) (strain G), Candida glabrata ATCC 2001 (strain H), Candida krusei ATCC 6258 (strain I), and Candida parapsilosis ATCC 22019 (strain J) were obtained from the American Type Culture Collection (ATCC, Manassas, Va., USA). The (S) and (R) indicate that ATCC reports these strains to be susceptible (S) and resistant (R) to ITC and FLC. The filamentous fungal strains Aspergillus flavus ATCC MYA-3631 (strain K), and Aspergillus terreus ATCC MYA-3633 (strain M) were also obtained from the American Type Culture Collection (ATCC, Manassas, Va., USA). Aspergillus nidulans ATCC 38163 (strain L) was kindly provided by Dr. Jon S. Thorson (University of Kentucky, Lexington, Ky., USA), respectively. Yeast strains were cultured at 35° C. Filamentous fungal strains were cultured at 25° C. and the spores were harvested. All fungal strains were cultured in RPMI 1640 medium (catalog # R6504, Sigma-Aldrich Chemical Co., St. Louis, Mo.) buffered to pH 7.0 with 0.165 M morpholinepropanesulfonic acid (MOPS) buffer (Sigma-Aldrich Chemical Co.).
The MIC values against fungal strains were determined based on a previously published protocol. MIC values for ebsulfur (2a) analogues against fungal cells were evaluated in 96-well plates as described in the CLSI document M27-A3 with minor modifications. […] Therefore, potato dextrose broth (PDB) was used to grow the yeast inocula of all strains tested, which were later diluted in RPMI 1640 medium to perform determination of MIC values. […] The tested compounds (10 mg/mL) were diluted to the working stocks (500 μg/mL) by addition of DMSO. Two-fold serial dilution of the working stocks was prepared by addition of RPMI 1640 medium (100 μL) and cell suspension (100 μL) to 96-well microtiter plate to achieve final drug and inoculum concentrations ranging from 12.5-0.02 μg/mL and 5×10^3 CFU/mL, respectively. Plates were incubated for 48 h at 35° C. […]

In experiment [2] the test system is Aspergillus terreus ATCC MYA-3633 (strain M). The experiment is described as follows: Antifungal MIC determination, filamentous fungi spores. Format: cell-based. Particulars: strain M; all compounds; spores. The procedure, abridged:
(§1)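 A modified CLSI M27-A3 protocol is used, with final compound levels from 12.5 to 0.02 μg/mL in two-fold steps. Cells are incubated at 5×10^3 CFU/mL in buffered RPMI 1640 at 35° C for 48 h.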

Experiment [3] concerns Aspergillus nidulans ATCC 38163 (strain L). Described as above. Format: cell-based. The conditions noted are these: strain L; spores. The procedure, abridged:
as §1

In experiment [4] the test system is Aspergillus flavus ATCC MYA-3631 (strain K). Described as above. Format: cell-based. Particulars: all compounds. Put shortly:
as §1

Experiment [5] deals with C. albicans ATCC 90819(R) (strain D). The experiment is described as follows: microbe, parasite or virus in culture. Format: cell-based, Candida albicans. The conditions noted are these: strain D; compounds 1-4n and AmB; 48 h, RPMI 1640. The procedure, abridged:
(§2)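 Broth microdilution per CLSI M27-A3 (modified) in RPMI 1640 buffered to pH 7.0 with 0.165 M MOPS; yeast inocula grown in PDB, Aspergillus spores from PDA cultures at 25° C. Final drug 12.5-0.02 μg/mL, inoculum 5×10^3 CFU/mL; incubation 48 h at 35° C.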

For experiment [6], the system named is C. albicans ATCC MYA-1237(R) (strain F). Put plainly: microbe, parasite or virus in culture. Format: cell-based, Candida albicans. The conditions noted are these: strain F; compounds 1-4n and AmB; 48 h, RPMI 1640. Put shortly: as §2
Experiment [7] has as its system C. albicans ATCC 64124 (strain B). Put plainly: microbe, parasite or virus in culture. Particulars: strain B; compounds 1-4n and AmB; 48 h, RPMI 1640. Format: cell-based, Candida albicans. The procedure, abridged:
as §2

Experiment [8] has as its system C. albicans ATCC MYA-1003(R) (strain G). The experiment is described as follows: microbe, parasite or virus in culture. Format: cell-based, Candida albicans. The conditions noted are these: strain G; compounds 1-4n and AmB; 48 h, RPMI 1640. Put shortly:
as §2

Experiment [9] concerns Candida glabrata ATCC 2001 (strain H). Put plainly: Antifungal MIC determination (CLSI M27-A3, 96-well). Format: cell-based. The conditions noted are these: strain H; compounds 1-4n and AmB; 48 h, RPMI 1640. Put shortly: as §2
Experiment [10] concerns Candida parapsilosis ATCC 22019 (strain J). The description is as above. Format: cell-based. The conditions noted are these: strain J; compounds 1-4n and AmB; 48 h, RPMI 1640. The procedure, abridged:
as §2

The test system of experiment [11] is Candida albicans ATCC 10231 (strain A). Described as above. Format: cell-based. Particulars: strain A; compounds 1-4n and AmB; 48 h, RPMI 1640. The procedure, abridged:
as §2

For experiment [12], the system named is Candida krusei ATCC 6258 (strain I). The description is as above. Format: cell-based. The conditions noted are these: strain I; compounds 1-4n and AmB; 48 h, RPMI 1640. The procedure, abridged: as §2
Experiment [13] deals with C. albicans ATCC MYA-2876(S) (strain C). The description is as above. Format: cell-based, Candida albicans. The conditions noted are these: strain C; compounds 1-4n and AmB; 48 h, RPMI 1640. Put shortly: as §2
Experiment [14] deals with C. albicans ATCC MYA-2310(S) (strain E). The experiment is described as above. Format: cell-based, Candida albicans. The conditions noted are these: strain E; compounds 1-4n and AmB; 48 h, RPMI 1640. The procedure, abridged:
as §2

Experiment [15] has as its system C. albicans ATCC 64124 (strain B). Format: cell-based, Candida albicans. On the procedure:
The efficiency of the compounds to kill C. albicans ATCC 64124 (strain B) was monitored using a previously published protocol. The cell suspensions were prepared to achieve an inoculum of approximately 1-4×10^5 CFU/mL in RPMI 1640 medium at 35° C. […] After fungal cell addition, at 0, 3, 6, 9, 12, and 24 h, the tubes were vortexed and 100 μL aliquots were removed from each solution, spread onto PDA plates, and incubated at 35° C. Colony counts were determined after 24 h of incubation. The experiments were performed in duplicate (FIG. 2).
Time-kill assays with ebsulfur (2a) and analogue 3a (FIG. 2) were performed to determine the rate of fungicidal activity of the compounds if the invention.

The subject of experiment [16] is C. albicans ATCC 10231 (strain A). The experiment is described as follows: ROS production assay (DCFH-DA). Format: cell-based, Candida albicans. Particulars: 1× and 2× MIC (H2O2 1 mM), 1-h treatment. As for the experimental part:
ROS production assay was performed as previously described with minor modifications. […] Once entering the cells, the DCFH-DA probe is first hydrolyzed to the non-fluorescent 2′,7′-dichlorodihydrofluorescein (DCFH) by cellular esterases. […] A colony of C. albicans ATCC 10231 (strain A) was used to inoculate 5 mL of PDB in a Falcon tube and grown overnight at 35° C. at 200 rpm.
Thus, whether the compounds of the invention would also induce ROS against C. albicans was studied. […] 2′,7′-dichlorodihydrofluorescin diacetate (DCFH-DA) was then used to detect and visualize ROS production (FIG. 5). As a positive control, cells were treated with H2O2, which is an inducer of hydroxyl radical formation.

In brackets after ≈: the same amount, converted by molar mass. Where two headings read alike, the source gives them in different places. Some results are limits rather than exact numbers.

Turning to `CC(C)CCn1c(=O)c2ccccc2[s+]1[O-]` (stereo not shown) [Compound 4f], in [1], the “antifungal activity after oxidizing the sulfur atom to sulfoxide” value (“antifungal activity” below) was “completely abolished”. Also, the MIC-0 in experiment [2], in [3], in experiment [4], in [5], in [6] and in experiment [7] was over 12.5 µg/mL in each case. Also, the MIC-0 in experiment [8], in [9], in experiment [10], in experiment [11], in experiment [12] and in experiment [13] was over 12.5 µg/mL each time. The molecule also registered an MIC-0 in [14] of over 12.5 µg/mL.
Consider `C[C@@H]1[C@H](O)[C@@H](C)/C=C/C=C/C=C/C=C/C=C/C=C/C=C/[C@H](O[C@@H]2O[C@H](C)[C@@H](O)[C@H](N)[C@@H]2O)C[C@@H]2O[C@](O)(C[C@@H](O)C[C@@H](O)[C@H](O)CC[C@@H](O)C[C@@H](O)CC(=O)O[C@H]1C)C[C@H](O)[C@H]2C(=O)O` [AmB, amphotericin B, reference compound], for which the “MIC values, range over the panel of fungal strains” value in experiment [1] (Candida and Aspergillus strains, controls, tested herein or previously published) was 0.98 to 15.6 µg/mL. The MIC-0 in [2] came to 3.9 µg/mL (≈ 4.22 µM); in experiment [4], 15.6 µg/mL (≈ 16.9 µM); in [5], 0.98 µg/mL (≈ 1.06 µM); in experiment [6] it was 3.9 µg/mL (≈ 4.22 µM); in [7] it was 3.9 µg/mL (≈ 4.22 µM); in [8] it was 3.9 µg/mL (≈ 4.22 µM). Also, the MIC-0 was 1.95 µg/mL (≈ 2.11 µM) in experiment [9], 1.95 µg/mL (≈ 2.11 µM) in experiment [10], 3.9 µg/mL (≈ 4.22 µM) in experiment [11] and 3.9 µg/mL (≈ 4.22 µM) in [12]. In [15] (2× MIC), the “time from which completely fungicidal” value is given as 6 h.
With `CC(C)Cn1c(=O)c2ccccc2[s+]1[O-]` (stereo not shown) [Compound 4e], in experiment [1], the “antifungal activity” value was “completely abolished”. Besides, the MIC-0 in experiment [2], in experiment [3], in experiment [4], in [5], in [6] and in experiment [7] was over 12.5 µg/mL each time. In addition, the MIC-0 in [8], in experiment [9], in experiment [10], in [11], in experiment [12] and in [13] was over 12.5 µg/mL throughout. Moreover, the MIC-0 in experiment [14] is over 12.5 µg/mL.
Regarding `O=c1c2ccccc2sn1-c1ccccc1` [Compound 2a, ebsulfur], the MIC-0 in experiment [2] was 6.25 µg/mL (≈ 27.5 µM); in [3], 6.25 µg/mL (≈ 27.5 µM); in experiment [4], 6.25 µg/mL (≈ 27.5 µM); in experiment [5] it was 3.13 µg/mL (≈ 13.8 µM); in experiment [6], over 12.5 µg/mL; in experiment [8] it was over 12.5 µg/mL. Moreover, the MIC-0 in experiment [9] was 6.25 µg/mL (≈ 27.5 µM); in experiment [10], 12.5 µg/mL (≈ 55 µM); in experiment [11] it was 12.5 µg/mL (≈ 55 µM); in experiment [12] it was 3.13 µg/mL (≈ 13.8 µM); in experiment [13], 12.5 µg/mL (≈ 55 µM); in experiment [14], 6.25 µg/mL (≈ 27.5 µM). For the same molecule, the “fungicidal or fungistatic effect” value in [15] (1× MIC) is recorded as “fungistatic”; in experiment [15] (2× MIC), “fungicidal”. In experiment [16], the “ROS induction (DCFH-DA fluorescence)” value was “highly fluorescent”.
Regarding `O=c1c2ccccc2[s+]([O-])n1C1CCCCCCC1` (stereo not shown) [Compound 4n], in [1], the “antifungal activity” value is “completely abolished”. Also, the MIC-0 in experiment [2], in experiment [3], in [4], in experiment [5], in [6] and in [7] was over 12.5 µg/mL each time. The MIC-0 in experiment [8], in experiment [9], in experiment [10], in [11], in experiment [12] and in experiment [13] was over 12.5 µg/mL each time. In experiment [14], the MIC-0 is over 12.5 µg/mL.
Regarding `OO` [Compound H2O2, H2O2, reference compound], in experiment [16], the “ROS induction (DCFH-DA fluorescence)” value is given as “highly fluorescent”.

The values above are taken from patent US10544112B2, “Identification of ebsulfur analogues with broad-spectrum antifungal activity” (priority 2017, dated 2020).
